Reference: the NIST ThermoML archive (doi:10.1016/j.jct.2008.08.007)
± gives the expanded uncertainty stated by the source.

Test: molar heat capacity at constant pressure
Settings: 101.33 kPa, Crystal

O=C(CO)[C@@H](O)[C@H](O)[C@H](O)CO [D-fructose]
Small sample (50 mg) DSC
Settings	molar heat capacity at constant pressure [J/K/mol]
288.15 K	220.3 ± 7.5
293.15 K	223.6 ± 7.5
298.15 K	227.7 ± 8.4
303.15 K	233.3 ± 7.2
308.15 K	236.9 ± 7.6
313.15 K	242.4 ± 7.6
318.15 K	247.3 ± 7.8
323.15 K	251.5 ± 8
328.15 K	251.8 ± 7.9
333.15 K	255.1 ± 8.6
338.15 K	259.6 ± 7.9
343.15 K	260.9 ± 7.6
348.15 K	266.4 ± 8.1
353.15 K	275.3 ± 8.7
358.15 K	290.4 ± 7.9

OC[C@H]1O[C@@H]2O[C@H]3[C@H](O)[C@@H](O)[C@@H](O[C@H]4[C@H](O)[C@@H](O)[C@@H](O[C@H]5[C@H](O)[C@@H](O)[C@@H](O[C@H]6[C@H](O)[C@@H](O)[C@@H](O[C@H]7[C@H](O)[C@@H](O)[C@@H](O[C@H]8[C@H](O)[C@@H](O)[C@@H](O[C@H]1[C@H](O)[C@H]2O)O[C@@H]8CO)O[C@@H]7CO)O[C@@H]6CO)O[C@@H]5CO)O[C@@H]4CO)O[C@@H]3CO [β-cyclodextrin]
Small sample (50 mg) DSC
Settings	molar heat capacity at constant pressure [J/K/mol]
288.15 K	1253.4 ± 34
293.15 K	1298.3 ± 42
298.15 K	1341.3 ± 42
303.15 K	1357.6 ± 46
308.15 K	1401.3 ± 45
313.15 K	1414.1 ± 47
318.15 K	1434.7 ± 45
323.15 K	1468.5 ± 45
328.15 K	1495.7 ± 41
333.15 K	1522.1 ± 43
338.15 K	1557.1 ± 53
343.15 K	1591.3 ± 43
348.15 K	1634.4 ± 40
353.15 K	1682.1 ± 39
358.15 K	1752.1 ± 44

O[C@@H]1[C@@H](O)[C@@H](O)OC[C@H]1O [xylopyranose, α-D-]
Vacuum adiabatic calorimetry
Settings	molar heat capacity at constant pressure [J/K/mol]
288.15 K	178.3 ± 6
293.15 K	180.9 ± 6.2
298.15 K	180.4 ± 6.2
303.15 K	182.8 ± 7
308.15 K	185.7 ± 5.4
313.15 K	185.8 ± 5.2
318.15 K	187.3 ± 6.4
323.15 K	190.4 ± 6.8
328.15 K	192 ± 6.6
333.15 K	192.6 ± 6.8
338.15 K	195.7 ± 5.8
343.15 K	200 ± 5
348.15 K	204.6 ± 5.4
353.15 K	209.4 ± 4.8
358.15 K	213.8 ± 5

CO[C@H]1O[C@H](CO)[C@@H](O)[C@H](O)[C@H]1O [methyl-α-D-glucopyranoside]
Small sample (50 mg) DSC
Settings	molar heat capacity at constant pressure [J/K/mol]
288.15 K	232.1 ± 4.3
293.15 K	231 ± 4.3
298.15 K	233.7 ± 4.5
303.15 K	235.7 ± 4.6
308.15 K	240.7 ± 4.8
313.15 K	247.5 ± 4.9
318.15 K	255.9 ± 5
323.15 K	264.7 ± 5.3
328.15 K	274.2 ± 5.6
333.15 K	283.6 ± 5
338.15 K	293.4 ± 5.6
343.15 K	302.9 ± 5.1
348.15 K	311.5 ± 5.2
353.15 K	319 ± 5.2
358.15 K	325.5 ± 5.4

OC[C@H]1O[C@@H]2O[C@H]3[C@H](O)[C@@H](O)[C@@H](O[C@H]4[C@H](O)[C@@H](O)[C@@H](O[C@H]5[C@H](O)[C@@H](O)[C@@H](O[C@H]6[C@H](O)[C@@H](O)[C@@H](O[C@H]7[C@H](O)[C@@H](O)[C@@H](O[C@H]1[C@H](O)[C@H]2O)O[C@@H]7CO)O[C@@H]6CO)O[C@@H]5CO)O[C@@H]4CO)O[C@@H]3CO [α-cyclodextrin]
Small sample (50 mg) DSC
Settings	molar heat capacity at constant pressure [J/K/mol]
288.15 K	1074.6 ± 26
293.15 K	1113.2 ± 31
298.15 K	1150 ± 32
303.15 K	1164.1 ± 36
308.15 K	1201.5 ± 52
313.15 K	1212.6 ± 50
318.15 K	1230.2 ± 52
323.15 K	1259.3 ± 51
328.15 K	1282.6 ± 47
333.15 K	1305.3 ± 31
338.15 K	1335.3 ± 42
343.15 K	1364.6 ± 30
348.15 K	1401.6 ± 45
353.15 K	1442.6 ± 43
358.15 K	1502.7 ± 37

O.OC[C@H]1O[C@@H](O[C@H]2[C@H](O)[C@@H](O)[C@@H](O)O[C@@H]2CO)[C@H](O)[C@@H](O)[C@H]1O [α-D-lactose hydrate]
Small sample (50 mg) DSC
Settings	molar heat capacity at constant pressure [J/K/mol]
288.15 K	400.9 ± 9
293.15 K	426.9 ± 9.9
298.15 K	435.8 ± 9.8
303.15 K	440.7 ± 9.8
308.15 K	446.4 ± 9
313.15 K	450 ± 9.2
318.15 K	452.2 ± 9.2
323.15 K	459.8 ± 9.1
328.15 K	464.5 ± 9
333.15 K	468.3 ± 8.9
338.15 K	477.1 ± 9.2
343.15 K	488.2 ± 10
348.15 K	497.7 ± 9.9
353.15 K	506.8 ± 10
358.15 K	522.7 ± 10

CC(=O)N[C@@H](C=O)[C@@H](O)[C@H](O)[C@H](O)CO [N-acetyl-D-glucosamine]
Small sample (50 mg) DSC
Settings	molar heat capacity at constant pressure [J/K/mol]
288.15 K	269.8 ± 5.8
293.15 K	276.4 ± 5.7
298.15 K	276.9 ± 6
303.15 K	278 ± 6.7
308.15 K	283.3 ± 6.4
313.15 K	281 ± 7
318.15 K	281.4 ± 7.2
323.15 K	292.7 ± 7.3
328.15 K	293.1 ± 7
333.15 K	299.4 ± 6.9
338.15 K	303.8 ± 6.9
343.15 K	308.7 ± 6.8
348.15 K	319.7 ± 6.6
353.15 K	325.2 ± 6.5
358.15 K	332 ± 6.4

OC[C@H]1OC(O)C[C@@H](O)[C@@H]1O (stereo partly drawn) [2-deoxy-D-glucose]
Small sample (50 mg) DSC
Settings	molar heat capacity at constant pressure [J/K/mol]
288.15 K	189.6 ± 6
293.15 K	195.8 ± 6.4
298.15 K	200.2 ± 5.9
303.15 K	201 ± 5.9
308.15 K	204.5 ± 6
313.15 K	206.9 ± 6.1
318.15 K	209 ± 5.6
323.15 K	213.6 ± 5.2
328.15 K	214.7 ± 5.3
333.15 K	218.4 ± 5.5
338.15 K	224.9 ± 5.4
343.15 K	226.4 ± 4
348.15 K	233 ± 3.9
353.15 K	235.4 ± 4.2
358.15 K	244 ± 4.3

O=C[C@H](O)[C@@H](O)[C@H](O[C@H]1O[C@H](CO)[C@@H](O[C@H]2O[C@H](CO)[C@@H](O)[C@H](O)[C@H]2O)[C@H](O)[C@H]1O)[C@H](O)CO [maltotriose]
Small sample (50 mg) DSC
Settings	molar heat capacity at constant pressure [J/K/mol]
288.15 K	638.3 ± 10
293.15 K	654 ± 10
298.15 K	662.5 ± 10
303.15 K	662.7 ± 11
308.15 K	666.3 ± 11
313.15 K	676.9 ± 12
318.15 K	683.9 ± 12
323.15 K	698.2 ± 12
328.15 K	707.4 ± 12
333.15 K	718.6 ± 13
338.15 K	736.3 ± 12
343.15 K	753.8 ± 13
348.15 K	773.2 ± 13
353.15 K	787.3 ± 13
358.15 K	823.7 ± 14

O=C[C@H](O)[C@@H](O)[C@@H](O)[C@H](O)CO [(+)-galactose]
Small sample (50 mg) DSC
Settings	molar heat capacity at constant pressure [J/K/mol]
288.15 K	203.3 ± 3.5
293.15 K	210.7 ± 3.6
298.15 K	213.7 ± 4.9
303.15 K	217.5 ± 3.8
308.15 K	222.3 ± 4.8
313.15 K	227.1 ± 4.5
318.15 K	229.4 ± 3.9
323.15 K	235.6 ± 5.1
328.15 K	236.8 ± 4.6
333.15 K	242.8 ± 4.4
338.15 K	247 ± 4
343.15 K	251.2 ± 4.8
348.15 K	254.7 ± 4.6
353.15 K	257.5 ± 4.3
358.15 K	265.1 ± 4.8

O=C[C@@H](O)[C@@H](O)[C@H](O)[C@H](O)CO [D-mannose]
Small sample (50 mg) DSC
Settings	molar heat capacity at constant pressure [J/K/mol]
288.15 K	188.7 ± 6.2
293.15 K	200.7 ± 6.1
298.15 K	206.6 ± 6.1
303.15 K	215 ± 5.5
308.15 K	223.3 ± 6.8
313.15 K	228.2 ± 5.6
318.15 K	231.6 ± 5.6
323.15 K	234.5 ± 5.7
328.15 K	236.5 ± 6.7
333.15 K	242.1 ± 5.3
338.15 K	245.2 ± 5.4
343.15 K	249 ± 5.6
348.15 K	252.4 ± 6.3
353.15 K	254.1 ± 6.3
358.15 K	260.2 ± 7

OC[C@H]1O[C@H](O)[C@H](O)[C@@H](O)[C@@H]1O [α-D-glucose]
Small sample (50 mg) DSC
Settings	molar heat capacity at constant pressure [J/K/mol]
288.15 K	210.2 ± 6.5
293.15 K	214.8 ± 5.3
298.15 K	219.9 ± 6.1
303.15 K	222.8 ± 5.3
308.15 K	226.5 ± 5.8
313.15 K	232.6 ± 6.3
318.15 K	235.8 ± 6.3
323.15 K	240.5 ± 6.7
328.15 K	242.1 ± 6.4
333.15 K	246.2 ± 6.8
338.15 K	250.5 ± 6.1
343.15 K	255.2 ± 6.2
348.15 K	260.4 ± 5.7
353.15 K	262.4 ± 5.9
358.15 K	267.7 ± 5.7

OC[C@H]1O[C@@H](O[C@H]2[C@H](O)[C@@H](O)[C@H](O)O[C@@H]2CO)[C@H](O)[C@@H](O)[C@@H]1O [D-cellobiose]
Small sample (50 mg) DSC
Settings	molar heat capacity at constant pressure [J/K/mol]
288.15 K	407.8 ± 7.4
293.15 K	431 ± 7.6
298.15 K	436.1 ± 8.5
303.15 K	445 ± 8.3
308.15 K	443.1 ± 7.8
313.15 K	446.9 ± 8.6
318.15 K	448.7 ± 7.8
323.15 K	463.2 ± 8.5
328.15 K	463.5 ± 7.8
333.15 K	473.1 ± 7.9
338.15 K	481.1 ± 8.8
343.15 K	490.7 ± 8.4
348.15 K	503.2 ± 8.5
353.15 K	515.8 ± 8.8
358.15 K	534.8 ± 9

O=CC[C@H](O)[C@H](O)CO [2-deoxy-D-erythropentose]
Small sample (50 mg) DSC
Settings	molar heat capacity at constant pressure [J/K/mol]
288.15 K	171.9 ± 4.5
293.15 K	167.6 ± 3.4
298.15 K	162 ± 3.2
303.15 K	163.6 ± 3.9
308.15 K	171.7 ± 3.7
313.15 K	178.4 ± 3.6
318.15 K	184.1 ± 4.8
323.15 K	197.4 ± 3.7
328.15 K	222 ± 4.6

OC[C@H]1O[C@@](CO)(O[C@H]2O[C@H](CO)[C@@H](O)[C@H](O)[C@H]2O)[C@@H](O)[C@@H]1O [D-sucrose]
Small sample (50 mg) DSC
Settings	molar heat capacity at constant pressure [J/K/mol]
288.15 K	408.5 ± 7.6
293.15 K	416.6 ± 6.9
298.15 K	424.3 ± 7
303.15 K	429.4 ± 7.7
308.15 K	437.5 ± 8.2
313.15 K	445.5 ± 8.2
318.15 K	451 ± 8
323.15 K	466.2 ± 8
328.15 K	472.6 ± 8
333.15 K	482.5 ± 8.5
338.15 K	490.3 ± 8.1
343.15 K	498.8 ± 7.8
348.15 K	506.7 ± 7.9
353.15 K	513.9 ± 8.2
358.15 K	522 ± 8.1

O=C[C@H](O)[C@H](O)[C@H](O)CO [D-ribose]
Small sample (50 mg) DSC
Settings	molar heat capacity at constant pressure [J/K/mol]
288.15 K	171.3 ± 4.2
293.15 K	179.4 ± 3.5
298.15 K	183.2 ± 3.7
303.15 K	188.8 ± 3.9
308.15 K	193.9 ± 3.8
313.15 K	201.3 ± 4
318.15 K	209 ± 3.9
323.15 K	224.6 ± 4.2
328.15 K	245.1 ± 4.3
